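Step 1: Grow cells in 96-well plates. Step 2: Expose to compound for 48 hours at 5 concentrations. Step 3: Interpolate endpoints linearly; if unreached, use highest concentration. Abbreviation: GI50, concentration required for 50% inhibition of growth. TGI: concentration producing complete growth inhibition.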
Experiments:
Assay in all cases: DTP human tumour cell line panel, 48 h
A549 NSCLC = tested on: A549 NSCLC
786-0 renal = tested on: 786-0 renal
HCT-116 colon = tested on: HCT-116 colon
SK-MEL-5 melanoma = tested on: SK-MEL-5 melanoma
DU-145 prostate = tested on: DU-145 prostate
ACHN renal = tested on: ACHN renal
IGROV1 ovarian = tested on: IGROV1 ovarian
NCI-H522 lung = tested on: NCI-H522 lung
SNB-75 CNS = tested on: SNB-75 CNS

Row | Compound | TGI (A549 NSCLC) | TGI (786-0 renal) | TGI (HCT-116 colon) | TGI (SK-MEL-5 melanoma) | TGI (DU-145 prostate) | TGI (ACHN renal) | TGI (IGROV1 ovarian) | TGI (NCI-H522 lung) | TGI (SNB-75 CNS) | GI50 (A549 NSCLC) | GI50 (HCT-116 colon) | GI50 (SK-MEL-5 melanoma) | GI50 (DU-145 prostate) | GI50 (ACHN renal) | GI50 (IGROV1 ovarian) | GI50 (NCI-H522 lung) | GI50 (SNB-75 CNS)
1 | COc1c(CC=C(C)C)c(O)c(C(CC(C)C)c2c(O)c(C(C)=O)c(O)c3c2OC(C(C)(C)O)C3)c(O)c1C(C)=O (stereo not given) | > 12.5 µM | > 12.5 µM | > 12.5 µM | 8.24 µM | > 12.5 µM | > 12.5 µM | > 12.5 µM | > 12.5 µM |  |  |  |  |  |  |  |  | 
2 | CN1CCCN2CCN(C)CCN(CC1)CC2 | > 100 µM | > 100 µM | > 100 µM | > 100 µM | > 100 µM | > 100 µM | > 100 µM | > 100 µM | > 100 µM |  |  |  |  |  |  |  | 
3 | CCOC(=O)C1C(=O)CC(O)(OCC)C(C(=O)OCC)C1c1ccc(OC)cc1 (stereo not given) | > 100 µM | > 100 µM | > 100 µM | > 100 µM | > 100 µM | > 100 µM | > 100 µM | > 100 µM | > 100 µM |  |  |  |  |  |  |  | 
4 | Cc1ccc(-c2c(C#N)c(-c3ccc(Cl)cc3)c(C#N)c(=O)n2NS(=O)(=O)c2ccccc2)cc1 | > 100 µM | > 100 µM | > 100 µM | > 100 µM |  | > 100 µM | > 100 µM | > 100 µM | > 100 µM |  |  |  |  |  |  |  | 
5 | Cn1cc(C(=O)c2nccc3c2cnc2ccccc23)ccc1=O | > 100 µM | > 100 µM | > 100 µM | > 100 µM | > 100 µM | > 100 µM |  |  | > 100 µM |  |  |  |  |  |  |  | 
6 | CCN1CC2=C(N=c3s/c(=C\c4ccc(Cl)cc4)c(=O)n3C2c2ccc(Cl)cc2)/C(=C/c2ccc(Cl)cc2)C1 (stereo not given) | > 100 µM | 55.2 µM | > 100 µM | > 100 µM | > 100 µM | > 100 µM | > 100 µM | > 100 µM | 9.74 µM |  |  |  |  |  |  |  | 
7 | O=C(O)CC(C(=O)O)c1ccccc1[N+](=O)[O-] (stereo not given) | > 100 µM | > 100 µM | > 100 µM | > 100 µM | > 100 µM | > 100 µM | > 100 µM | > 100 µM | > 100 µM |  |  |  |  |  |  |  | 
8 | Cc1ccc(/C=C2\CN(C)CC3=C2OC(N)=C(C#N)C3c2ccc(C)cc2)cc1 (stereo not given) | 49.4 µM | 32 µM | 27.5 µM | > 100 µM | 44.7 µM | 50 µM | 39.4 µM | > 49.9 µM |  |  |  |  |  |  |  |  | 
9 | CCN(CC)C(=S)SS(=O)(=O)c1ccccc1C(=O)O | > 100 µM | > 100 µM | > 100 µM | > 100 µM | > 100 µM | > 100 µM | > 100 µM | > 36.3 µM | > 100 µM |  |  |  |  |  |  |  | 
10 | COC(CN(C)C(=O)C(C)NC(=O)c1ccccc1)OC (stereo not given) | > 100 µM | > 100 µM | > 100 µM | > 100 µM | > 100 µM | > 100 µM | > 100 µM | > 100 µM | > 100 µM |  |  |  |  |  |  |  | 
11 | Cc1ccc2c(c1)SSSSS2 | 48.7 µM | 37.2 µM | 30.6 µM | 35.8 µM | 31.2 µM | 34.9 µM | 40.8 µM | 40.6 µM | 49.2 µM |  |  |  |  |  |  |  | 
12 | CCc1ccc(-c2nnc(COc3ccc(-c4nc5ccc(C)cc5[nH]4)cc3OC)o2)cc1 | > 100 µM |  | 11.2 µM | 4.09 µM | > 100 µM | 3.19 µM | > 100 µM | 25.2 µM | 2.96 µM | 4.21 µM | 3.19 µM | 1.97 µM | 5.98 µM | 1.78 µM | 4.94 µM | 3.1 µM | 1.41 µM

— PubChem BioAssay (NCI)
